Literature values in paper PMC9863691, “A Novel Ferroptosis Inhibitor UAMC-3203, a Potential Treatment for Corneal Epithelial Wound” (Pharmaceutics, 2022).

Legend:
ferroptosis = test system: ferroptosis; design: method as in PMID 30354101; settings: read-out: in vitro potency IC50 (ferroptosis); cited from earlier work
[1] = test system: human corneal epithelial cell line; design: method as in PMID 34535730; settings: after exposure to cigarette smoke and heated tobacco products; cited from earlier work
[2] = human, microsomes; cited from earlier work

For `CCOC(=O)c1ccc(NC2CCCCC2)c(N)c1` [Fer-1, Ferrostatin-1, reference compound], the IC50 (ferroptosis) is given as 33 nM, the “effect on cell death and cell viability” value [1] is given as “reduced cell death and improved cell viability” and the “t1/2 in human microsome” value [2] is given as 6 min.
